This is an account of results in US6998423B2, “Prevention of loss and restoration of bone mass by certain prostaglandin agonists” (priority 1996, dated 2006).

The subject of this experiment is Bone Morphogenetic Protein 7 (BMP-7) expression in EP2 293S cells. Description: Induction of BMP-7 expression (Northern blot) in 293S cells transfected with the EP2 receptor. The format is cell-based, human. The note with it: 10^−6M, RNA extracted at 8, 16 and 24 hours, Northern blot with 32P-labeled BMP-7 probe. Here is the method: Methods: 293S and EP2 293S cells were grown in Dulbecco's Modified Egale medium (DMEM, Gibco, BRL; Gaithersburg, Md.). One day prior to treatment with PGE2or a prostaglandin agonist, cells were plated at a density of 1.5×10^6 cells /10 cm dish. […] Cells were harvested and RNA extracted at 8, 16 and 24 hours. Northern blot analysis of total ([…] ) was carried out by probing the blots with ^32P-labeled BMP-7 probe. The blots were normalized for RNA loading by hybridization with ^32P-labeled 18s ribosomal RNA probe. […] Given the known role of BMP-7 in kidney regeneration and the ability of a prostaglandin agonist to induce BMP-7 expression in 293S kidney cells in a time and receptor specific manner indicates a role for a prostaglandin agonist in kidney regeneration.

`CCCCC[C@H](O)/C=C/[C@H]1[C@H](O)CC(=O)[C@@H]1C/C=C\CCCC(=O)O` [PGE2, prostaglandin E2]: the “induction of the expression of BMP-7” value is reported as “in a time dependent manner induce the expression of BMP-7”.
